These compounds were tested against human LPAR1 (Homo sapiens (Human), UniProt Q92633) (assay: LPAR1 intracellular calcium mobilization assay (antagonist mode, FLIPR)). Details: CHO-K1 EDG2 cells expressing human LPAR1, LPA 18:2 at EC80 (100 nM), test compound 0.5 nM to 10 μM.
Format: cell-based

Sequence of human LPAR1 (Q92633 whole entry): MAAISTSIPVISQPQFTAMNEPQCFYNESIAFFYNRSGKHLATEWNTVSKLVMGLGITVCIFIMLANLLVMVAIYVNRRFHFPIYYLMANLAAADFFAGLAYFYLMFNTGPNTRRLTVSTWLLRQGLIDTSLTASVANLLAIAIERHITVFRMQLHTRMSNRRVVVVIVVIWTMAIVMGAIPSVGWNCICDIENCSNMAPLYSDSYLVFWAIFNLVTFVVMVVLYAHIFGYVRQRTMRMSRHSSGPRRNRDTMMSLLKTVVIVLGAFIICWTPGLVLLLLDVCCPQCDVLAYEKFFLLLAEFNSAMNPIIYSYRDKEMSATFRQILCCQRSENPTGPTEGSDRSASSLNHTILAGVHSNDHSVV

First: C[C@@H](OC(=O)Nc1c(-c2ncc(NC(=O)C3(C#N)CC3)cc2F)nnn1C)c1cc(F)cnc1F [Compound 336, (R)-1-(2,5-difluoropyridin-3-yl)ethyl (4-(5-(1-cyanocyclopropane-1-carboxamido)-3-fluoropyridin-2-yl)-1-methyl-1H-1,2,3-triazol-5-yl)carbamate]
Second: C[C@@H](OC(=O)Nc1c(-c2ncc(NC(=O)C34CC(C#N)(C3)C4)cc2F)nnn1C)c1cc(F)cnc1F [Compound 337, (R)-1-(2,5-difluoropyridin-3-yl)ethyl (4-(5-(3-cyanobicyclo[1.1.1]pentane-1-carboxamido)-3-fluoropyridin-2-yl)-1-methyl-1H-1,2,3-triazol-5-yl)carbamate]
The EC50 of the first is 1.6-fold higher: 258 nM for the first, 163 nM for the second.

With `C[C@@H](OC(=O)Nc1c(-c2ncc(NC(=O)c3ccc(Cl)nc3)cc2F)nnn1C)c1cc(F)cnc1F` [Compound 338, (R)-1-(2,5-difluoropyridin-3-yl)ethyl (4-(5-(6-chloronicotinamido)-3-fluoropyridin-2-yl)-1-methyl-1H-1,2,3-triazol-5-yl)carbamate] the EC50 was 132 nM.

From US11912686B2 (Gilead Sciences, Inc., priority 2020, dated 2024)
